{"source": "patent US9102648B1", "about": "“Bioavailable diacylhydrazine ligands for modulating the expression of exogenous genes via an ecdysone receptor complex” (Intrexon Corporation, priority 2003, dated 2015)", "key": {"[1]": {"assay": "Partition coefficient Log (D), 1-octanol / pH 7.4 buffer", "format": "physicochemical", "settings": "water-saturated 1-octanol / pH 7.4 buffer, room temperature", "procedure": "The partition coefficient, Log (D), between water-saturated 1-octanol and pH 7.4 buffer was determined for the test compounds. The buffer was prepared as described in section 2. A 12 μl aliquot of a 10 mM stock solution in DMSO was introduced to a vial containing 0.60 mL of octanol and 0.60 mL of buffer at room temperature. Testosterone was also added to a final concentration of 100 μM as an internal control. The solution was vortexed for 60 minutes and centrifuged at 10,000 rpm for 10 minutes. The organic and aqueous layers were removed. Serial dilutions of the organic layer were made with 50% methanol except for the initial dilution, which was made in 100% methanol. Serial dilutions of the aqueous layer were made in the pH 7.4 buffer. The diluted samples were then assayed by LC/MS for the compound as well as for testosterone. The Log of the ratio of peak area responses was calculated to obtain the Log (D). Typical Log D values for testosterone are from 3.0-3.3."}, "[2]": {"tested_on": "Caco-2 monolayers", "assay": "Bi-directional permeability, CACO-2", "format": "in vitro ADME", "procedure": "(§1) Caco-2 monolayers were grown to confluence on collagen-coated, microporous, polycarbonate membranes in 12-well Costar Transwell plates. Details of the plates and their certification are shown below. The permeability assay buffer was Hank's Balanced Salt Solution containing 10 mM HEPES and 15 mM glucose at a pH of 7.0±0.2. The dosing solution concentration was 10 μM in assay buffer. At each time point, 1 and 2 hours, a 200-μL aliquot was taken from the receiver chamber and replaced with fresh assay buffer. Cells were dosed on the apical side (A-to-B) or basolateral side (B-to-A) and incubated at 37° C. with 5% CO2 and 90% relative humidity. Each determination was performed in duplicate. The important experimental parameters are outlined below. Permeability through a cell-free (blank) membrane was studied to determine non-specific binding and free diffusion of the compound through the device. Lucifer yellow flux was also measured for each monolayer after being subjected to the test compounds to ensure no damage was inflicted to the cell monolayers during the flux period.\n(§2) All samples were assayed by LC/MS using electrospray ionization. Typical LC/MS conditions are as follows:\n(§3) dCr/dt is the cumulative concentration in the receiver compartment versus time in M s^−1.\n(§4) Vr is the volume of the receiver compartment in cm^3.\n(§5) Vd is the volume of the donor compartment in cm^3.\n(§6) A is the area of the cell monolayer (1.13 cm^2 for 12-well Transwell).\n(§7) C0 is the concentration of the dosing solution in M.\n(§8) Cr^final is the cumulative receiver concentration in M at the end of the incubation period.\n(§9) Cd^final is the concentration of the donor in M at the end of the incubation period."}, "[3]": {"assay": "Bi-directional permeability, CACO-2", "format": "in vitro ADME", "procedure": "as §1, §2, §3, §4, §5, §6, §7, §8, §9"}, "[4]": {"tested_on": "mutated ecdysone receptor-based gene switch", "assay": "In vivo SEAP induction, ligand by IP injection", "set-up": "species or system C57BL/6 mouse", "settings": "mouse serum", "procedure": "Applicants' ligands are useful in various applications including gene therapy, expression of proteins of interest in host cells, production of transgenic organisms, and cell-based assays. In vivo induction of a reporter enzyme with various ligands of the present invention was evaluated in a C57BL/6 mouse model system containing a gene switch.\nEach element of the gene switch was on a separate plasmid. Receptor expression was under the control of a CMV promoter (SEQ ID NO: 15). Induction was evaluated by the amount of reporter protein expressed in the presence of ligand.\nSEAP expression in serum of mice was evaluated after electroporation of the gene switch into mouse quadriceps. Mice were anesthetized with 2 μL/g of a mixture of ketamine (100 mg/mL) and xylazine (20 mg/mL). Animals were then shaved, DNA vectors injected into the muscle in a volume of 2×50 μL polyglutamic acid (12 mg/mL water), electrode conductivity gel applied, and an electrode caliber (1 cm×1 cm; model 384) was placed on hind leg. The muscle was electroporated with 200 V/cm, 8 times, for 20 msec/pulse, at 1 sec time intervals. The transverse electrical field direction was reversed after the animals received half of the pulses. Electroporation was performed with an ECM 830 electroporator from BTX Molecular Delivery Systems.\nIn some experiments mice received an intraperitoneal injection (IP) of 2.6 μmol of ligand in 50 μL of DMSO 3 days after electroporation of the gene switch. In other experiments the concentration of ligand was decrease to 26 nmol/50 μL of DMSO/mouse. SEAP expression was evaluated 2-11 days after ligand administration. In other experiments ligand was administered in rodent chow. The chow was prepared by dissolving 2 g of ligand in 20 mL of acetone and adding it to 1 kg of LabDiet 5010 autoclavable chow from Purina Mills. This was thoroughly mixed in a Hobart mixer and then mixed for an additional 15 min in a Cross Blend mixer. Animals received chow ad libitum for 1, 2, or 3 days. All values are the average from four animals. Background SEAP in sera from animals treated with vector alone without ligand addition was 0-11 ng/mL serum.\nMouse serum was obtained by centrifugation of blood acquired by retroorbital bleeding with a small glass capillary tube. SEAP quantification was determined using a Clontech Great Escape chemiluminescence kit and by comparison with the Clontech SEAP standard.\nTable 9: In vivo evaluation of ligand-mediated induction of a mutated ecdysone receptor-based gene switch. SEAP expression in serum of mice was evaluated after electroporation of the gene expression cassettes into mouse quadriceps. Mice received an IP injection of 2.6 μmol of ligand 3 days after electroporation. SEAP expression was evaluated 2-11 days after ligand administration. Each dose group was composed of four animals. Percentage of GS™-E ligand induction was determined by averaging SEAP expression from four animals divided by the average SEAP expression induced with GS™-E ligand and then multiplying by 100.\nTable 10: Induction of gene switch expression with low concentrations of ligand. SEAP expression in serum of mice was evaluated after electroporation of the gene expression cassettes into mouse quadriceps. Mice received an IP injection of 26 nmol of ligand or 130 nmol GS™-E ligand 3 days after electroporation. SEAP expression was evaluated 2-7 days after ligand administration. Values are the average from 4 animals."}, "[5]": {"assay": "Determination of LC Log P (experimental)", "format": "physicochemical", "procedure": "Liquid chromatography retention times (RT) are measured for each substance using the conditions described below. A linear equation is derived relating RT to log P is developed from the data for the log P standards. The log P for the test compound is calculated from the log P/retention time equation."}, "[6]": {"settings": "human, Caco-2, pH 7, Papp, A-to-B Avg"}, "[7]": {"settings": "human, Caco-2, pH 7, Papp, A-to-B Rep. 2"}}, "note": "Like-named read-outs stand apart in the source and are kept apart here.", "data": [{"smiles": "CC(=O)c1ccc(C(=O)NN(C(=O)c2cc(C(=O)O)cc(C(=O)O)c2)C(C)(C)C)cc1", "note": "[RG-100150]", "values": [{"measurement": "Log(D) Octanol/pH 7.4", "setting": "[1]", "value": "−2.1"}, {"measurement": "Papp Blank", "setting": "[2]; Caco-2", "value": "36.9 10^−6 cm/s"}, {"measurement": "Papp, A-to-B Avg", "setting": "[2]; Caco-2", "value": "0.18 10^−6 cm/s"}, {"measurement": "Papp, A-to-B Rep. 1", "setting": "[2]; Caco-2", "value": "0.19 10^−6 cm/s"}, {"measurement": "Papp, A-to-B Rep. 2", "setting": "[2]; Caco-2", "value": "0.18 10^−6 cm/s"}, {"measurement": "Papp, B-to-A Avg", "setting": "[2]; Caco-2", "value": "0.33 10^−6 cm/s"}, {"measurement": "Papp, B-to-A Rep. 1", "setting": "[2]; Caco-2", "value": "0.33 10^−6 cm/s"}, {"measurement": "Papp, B-to-A Rep. 2", "setting": "[2]; Caco-2", "value": "0.34 10^−6 cm/s"}, {"measurement": "Significant Efflux", "setting": "[2]; Caco-2", "value": "No"}]}, {"smiles": "CCc1ccc(C(=O)NN(C(=O)c2cc(C)cc(C)c2)C(C)(C)C)cc1", "note": "[RG-102125]", "values": [{"measurement": "Log(D) Octanol/pH 7.4", "setting": "[1]", "value": 3.2}, {"measurement": "Absorption Potential", "setting": "[2]; classification from Papp(A-to-B)", "value": "High (Papp(A-to-B) ≧ 1.0 × 10^−6 cm/s High)"}, {"measurement": "Significant Efflux", "setting": "[2]; classification from Papp(B-to-A) and ratio", "value": "No"}, {"measurement": "recovery at 2 h, 10 μM", "setting": "[3]; Caco-2, pH 7, Percent Recovery Blank", "value": 62, "unit": "%"}, {"measurement": "Papp at 2 h, 10 µM", "setting": "[3]; Caco-2, pH 7, cell-free (blank) membrane, 10 μM, read-out: Papp Blank", "value": 21.9, "unit": "×10⁻⁶ cm/s"}, {"measurement": "Papp B→A at 2 h, 10 µM", "setting": "[3]; human, Caco-2, pH 7, Caco-2, 10 μM, average of 2 replicates, read-out: Papp, B-to-A Avg", "value": 20.2, "unit": "×10⁻⁶ cm/s"}, {"measurement": "Papp A→B at 2 h, 10 µM", "setting": "[3]; human, Caco-2, pH 7, Caco-2, 10 μM, replicate 1, read-out: Papp, A-to-B Rep. 1", "value": 25.7, "unit": "×10⁻⁶ cm/s"}, {"measurement": "Papp B→A at 2 h, 10 µM", "setting": "[3]; human, Caco-2, pH 7, Caco-2, 10 μM, replicate 1, read-out: Papp, B-to-A Rep. 1", "value": 20.7, "unit": "×10⁻⁶ cm/s"}, {"measurement": "Papp B→A at 2 h, 10 µM", "setting": "[3]; human, Caco-2, pH 7, Caco-2, 10 μM, replicate 2, read-out: Papp, B-to-A Rep. 2", "value": 19.7, "unit": "×10⁻⁶ cm/s"}, {"measurement": "Papp A→B at 2 h, 10 µM", "setting": "[3]; [6]", "value": 26, "unit": "×10⁻⁶ cm/s"}, {"measurement": "Papp A→B at 2 h, 10 µM", "setting": "[3]; [7]", "value": 26.3, "unit": "×10⁻⁶ cm/s"}, {"measurement": "recovery at 2 h, 10 μM", "setting": "[3]; human, Caco-2, pH 7, Percent Recovery A-to-B", "value": 84, "unit": "%"}, {"measurement": "recovery at 2 h, 10 μM", "setting": "[3]; human, Caco-2, pH 7, Percent Recovery B-to-A", "value": 63, "unit": "%"}]}, {"smiles": "Cc1cc(C)cc(C(=O)N(NC(=O)c2ccc3c(c2C)OCCO3)C(C)(C)C)c1", "note": "[RG-102317, N-(5-methyl-1,4-benzodioxan-6-carbonyl)-N′-(tert-butyl)-N′-(3,5-dimethylbenzoyl)hydrazine]", "values": [{"measurement": "Secreted Alkaline Phosphatase (percentage of GS ™-E ligand induction) Day 2", "setting": "[4]; IP 2.6 μmol ligand 3 days after electroporation, day 2 after ligand", "value": "112 percentage of GS ™-E ligand induction"}, {"measurement": "Secreted Alkaline Phosphatase (percentage of GS ™-E ligand induction) Day 3", "setting": "[4]; IP 2.6 μmol ligand, day 3 after ligand", "value": "116 percentage of GS ™-E ligand induction"}, {"measurement": "Secreted Alkaline Phosphatase (percentage of GS ™-E ligand induction) Day 11", "setting": "[4]; IP 2.6 μmol ligand, day 11 after ligand", "value": "61 percentage of GS ™-E ligand induction"}, {"measurement": "chromatographic logP", "setting": "[5]", "value": 3.6}, {"measurement": "Log(D) Octanol/pH 7.4", "setting": "[1]", "value": 3.6}, {"measurement": "Significant Efflux", "setting": "[2]; Caco-2", "value": "No"}, {"measurement": "Papp at 2 h, 10 µM", "setting": "[3]; Caco-2, pH 7, Papp Blank", "value": 27.9, "unit": "×10⁻⁶ cm/s"}, {"measurement": "recovery at 2 h, 10 μM", "setting": "[3]; Caco-2, pH 7, cell-free (blank) membrane, 10 μM, read-out: Percent Recovery Blank", "value": 87, "unit": "%"}, {"measurement": "efflux ratio at 2 h, 10 μM", "setting": "[3]; human, Caco-2, pH 7", "value": 0.8}, {"measurement": "recovery at 2 h, 10 μM", "setting": "[3]; human, Caco-2, pH 7, Caco-2, apical-to-basolateral, 10 μM, read-out: Percent Recovery A-to-B", "value": 91, "unit": "%"}, {"measurement": "recovery at 2 h, 10 μM", "setting": "[3]; human, Caco-2, pH 7, Caco-2, basolateral-to-apical, 10 μM, read-out: Percent Recovery B-to-A", "value": 86, "unit": "%"}, {"measurement": "Papp A→B at 2 h, 10 µM", "setting": "[3]; [6]", "value": 28, "unit": "×10⁻⁶ cm/s"}, {"measurement": "Papp A→B at 2 h, 10 µM", "setting": "[3]; human, Caco-2, pH 7, Papp, A-to-B Rep. 1", "value": 28.6, "unit": "×10⁻⁶ cm/s"}, {"measurement": "Papp A→B at 2 h, 10 µM", "setting": "[3]; [7]", "value": 27.3, "unit": "×10⁻⁶ cm/s"}, {"measurement": "Papp B→A at 2 h, 10 µM", "setting": "[3]; human, Caco-2, pH 7, Papp, B-to-A Avg", "value": 21.1, "unit": "×10⁻⁶ cm/s"}, {"measurement": "Papp B→A at 2 h, 10 µM", "setting": "[3]; human, Caco-2, pH 7, Papp, B-to-A Rep. 1", "value": 21, "unit": "×10⁻⁶ cm/s"}, {"measurement": "Papp B→A at 2 h, 10 µM", "setting": "[3]; human, Caco-2, pH 7, Papp, B-to-A Rep. 2", "value": 21.2, "unit": "×10⁻⁶ cm/s"}]}]}
